From patent US20250145633A1, “SUBSTITUTED FURANOPYRIMIDINE COMPOUNDS AS PDE1 INHIBITORS” (Dart NeuroScience, LLC, priority 2017, published 2025)

Biological target: human PDE1B enzyme (Homo sapiens (Human), UniProt Q01064)
Assay: IMAP TR-FRET PDE1B enzymatic assay
Type: biochemical
Details: negative log of half-maximal molar inhibitory concentration, 200 nM FAM-cAMP, values given as bins; for IC50: read-out: PDE1b (pIC50) (converted)
Procedure, shortened: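 Full-length GST-tagged human PDE1B (250 pg/well) in IMAP BSA buffer with 10 U/ml calmodulin and 2.5 mM CaCl2; compound pre-incubated 5 min at room temperature, then 200 nM (final) FAM-cAMP for 30 min. IMAP binding reagent/Tb added, 1 h; TR-FRET 520/490 ratio read. IC50 from sigmoidal dose-response fit.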

Structure (SMILES) | IC50 [nM] | PDE1b (pIC50)
Cc1oc2ncnc(NC3(C)CC3)c2c1C(=O)N1CCc2c(ncnc2NC2(C)CC2)C1 [Example 796, 6-Methyl-N-(1-methylcyclopropyl)-5-{4-[(1-methylcyclopropyl)amino]-5H,6H,7H,8H-pyrido[3,4-d]pyrimidine-7-carbonyl}furo[2,3-d]pyrimidin-4-amine] | 10 to 100 | –
Cc1oc2ncnc(NC3(C)CC3)c2c1C(=O)N1CCC(c2ccc(OCCF)cc2)C1 (stereo not drawn) [Example 797, 5-{3-[4-(2-Fluoroethoxy)phenyl]pyrrolidine-1-carbonyl}-6-methyl-N-(1-methylcyclopropyl)furo[2,3-d]pyrimidin-4-amine] | 10 to 100 | –
Cc1cc(F)nc(C2CCN(C(=O)c3c(C)oc4ncnc(NC5(C)CC5)c34)C2)c1 (stereo not drawn) [Example 798, 5-[3-(6-Fluoro-4-methylpyridin-2-yl)pyrrolidine-1-carbonyl]-6-methyl-N-(1-methylcyclopropyl)furo[2,3-d]pyrimidin-4-amine] | – | >8
Cc1nc(C2CCN(C(=O)c3c(C)oc4ncnc(NC5(C)CC5)c34)C2)ccc1F (stereo not drawn) [Example 799, 5-[3-(5-Fluoro-6-methylpyridin-2-yl)pyrrolidine-1-carbonyl]-6-methyl-N-(1-methylcyclopropyl)furo[2,3-d]pyrimidin-4-amine] | – | >8
Cc1nc(C2CCN(C(=O)c3c(C)oc4ncnc(NC5(C)CC5)c34)C2)ncc1F (stereo not drawn) [Example 800, 5-[3-(5-Fluoro-4-methylpyrimidin-2-yl)pyrrolidine-1-carbonyl]-6-methyl-N-(1-methylcyclopropyl)furo[2,3-d]pyrimidin-4-amine] | – | >8
Cc1oc2ncnc(NC3(C)CC3)c2c1C(=O)N1CCC(c2cccc(C(F)(F)F)n2)C1 (stereo not drawn) [Example 801, 6-Methyl-N-(1-methylcyclopropyl)-5-f{3-[6-(trifluoromethyl)pyridin-2-yl]pyrrolidine-1-carbonyl}furo[2,3-d]pyrimidin-4-amine] | – | >8
Cc1oc2ncnc(NC3(C)CC3)c2c1C(=O)N1CCC(c2cc(C(F)(F)F)ccn2)C1 (stereo not drawn) [Example 802, 6-Methyl-N-(1-methylcyclopropyl)-5-f{3-[4-(trifluoromethyl)pyridin-2-yl]pyrrolidine-1-carbonyl}furo[2,3-d]pyrimidin-4-amine] | – | >8
Cc1oc2ncnc(NC3(C)CC3)c2c1C(=O)N1CCc2c(ncnc2C2CCOCC2)C1 [Example 803, 6-Methyl-N-(1-methylcyclopropyl)-5-[4-(oxan-4-yl)-5H,6H,7H,8H-pyrido[3,4-d]pyrimidine-7-carbonyl]furo[2,3-d]pyrimidin-4-amine] | 10 to 100 | –
C=C(C)c1ncnc2c1CCN(C(=O)c1c(C)oc3ncnc(NC4(C)CC4)c13)C2 [Example 804, 6-Methyl-N-(1-methylcyclopropyl)-5-[4-(prop-1-en-2-yl)-5H,6H,7H,8H-pyrido[3,4-d]pyrimidine-7-carbonyl]furo[2,3-d]pyrimidin-4-amine] | 10 to 100 | –
Cc1oc2ncnc(NC3(C)CC3)c2c1C(=O)N1CCc2c(ncnc2C2CC2)C1 [Example 805, 5-{4-Cyclopropyl-5H,6H,7H,8H-pyrido[3,4-d]pyrimidine-7-carbonyl}-6-methyl-N-(1-methylcyclopropyl)furo[2,3-d]pyrimidin-4-amine] | 10 to 100 | –
CCCOc1ncnc2c1CCN(C(=O)c1c(C)oc3ncnc(NC4(C)CC4)c13)C2 [Example 806, 6-Methyl-N-(1-methylcyclopropyl)-5-f{4-propoxy-5H,6H,7H,8H-pyrido[3,4-d]pyrimidine-7-carbonyl}furo[2,3-d]pyrimidin-4-amine] | 10 to 100 | –
Cc1oc2ncnc(NC3(C)CC3)c2c1C(=O)N1CCc2c(ncnc2OCC(C)C)C1 [Example 807, 6-Methyl-N-(1-methylcyclopropyl)-5-[4-(2-methylpropoxy)-5H,6H,7H,8H-pyrido[3,4-d]pyrimidine-7-carbonyl]furo[2,3-d]pyrimidin-4-amine] | – | >8
